Literature values, collected in paper PMC12824232 (Nature Communications, 2025).

Tests used:
[1] = tested on: ER+/HER2− advanced breast cancer; conditions: patients with ESR1 mutations, phase 3 trial
[2] = tested on: patients with ER+/HER2− advanced breast cancer; conditions: phase 2 trial

Row | Compound | median PFS [1] [months] | patients with Grade 3/4 TRAEs [2] [%]
1 | CCNCCc1ccc(CN(CC)c2cc(OC)ccc2[C@@H]2CCc3cc(O)ccc3C2)cc1 [elacestrant] | 3.8 | 
2 | O=C1CC[C@H](N2Cc3cc(N4CCN(CC5CCN(c6ccc([C@@H]7c8ccc(O)cc8CC[C@@H]7c7ccccc7)cc6)CC5)CC4)ccc3C2=O)C(=O)N1 [vepdegestrant] |  | 6
